Measurements reported in patent publication US9513294B2, “Megastokes amino-triazolyl-BODIPY compounds and applications to live neuron staining and human serum albumin FA1 drug site probing” (National University of Singapore, priority 2012, dated 2016).

Key:
[1] = Absorbance and fluorescence emission spectra (SpectraMax M2); assay type: physicochemical; settings: for λmax Abs. (nm) / λmax Em. (nm): MKAC compound library; for λmax Abs. (nm) / λmax Absorp. (nm): absorbance maximum; for λmax Em. (nm) / λmax Emission (nm): fluorescence emission maximum; for λmax Absorp. (nm) / λmax Emission (nm): MKCA compound library
Procedure, shortened: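 Absorbance and emission maxima measured on a SpectraMax M2 spectrophotometer, which also gave quantum yield data; analysis in GraphPrism.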

[2] = Quantum yield measurements versus Acridine Yellow in EtOH; assay type: physicochemical; settings: quantum yield
Procedure, shortened: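 Fluorescence quantum yield is relative to Acridine Yellow in EtOH (Φ 0.47), with excitation at 460 nm. Integrated emission at 510–700 nm was corrected for absorbance at the excitation wavelength and for solvent refractive index.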

| Structure (SMILES) | λmax Abs. (nm) [1] | λmax Em. (nm) [1] | φ (%) ([2]; MKAC compound library) | λmax Absorp. (nm) [1] | λmax Emission (nm) [1] | φ (%) ([2]; MKCA compound library) |
| --- | --- | --- | --- | --- | --- | --- |
| CC(=O)Nc1ccc(C2=C3C=CC(N4CCCC4)=[N+]3[B-](F)(F)n3c2ccc3-n2cc(C3CCCC3)nn2)cc1 [MKAC215-5] | 463 nm | 574 nm | 1.00% | – | – | – |
| CC(=O)Nc1ccc(C2=C3C=CC(N4CCCC4)=[N+]3[B-](F)(F)n3c2ccc3-n2cc(CC3CCCCC3)nn2)cc1 [MKAC215-8] | 462 nm | 568 nm | 1.17% | – | – | – |
| CC(=O)Nc1ccc(C2=C3C=CC(N4CCCC4)=[N+]3[B-](F)(F)n3c2ccc3-n2cc(CN(C)Cc3ccccc3)nn2)cc1 [MKAC215-18] | 461 nm | 569 nm | 1.54% | – | – | – |
| CC(=O)Nc1ccc(C2=C3C=CC(N4CCCC4)=[N+]3[B-](F)(F)n3c2ccc3-n2cc(CCc3ccccc3)nn2)cc1 [MKAC215-19] | 462 nm | 567 nm | 3.41% | – | – | – |
| CC(=O)Nc1ccc(C2=C3C=CC(N4CCCC4)=[N+]3[B-](F)(F)n3c2ccc3-n2cc(CC(C)C)nn2)cc1 [MKAC215-43] | 461 nm | 565 nm | 1.83% | – | – | – |
| CCCc1cn(-c2ccc3n2[B-](F)(F)[N+]2=C(N4CCCC4)C=CC2=C3c2ccc(NC(C)=O)cc2)nn1 [MKAC215-48] | 461 nm | 566 nm | 2.70% | – | – | – |
| CC(=O)Nc1ccc(C2=C3C=CC(N4CCCC4)=[N+]3[B-](F)(F)n3c2ccc3-n2cc(CO)nn2)cc1 [MKAC215-70] | 461 nm | 574 nm | 1.11% | – | – | – |
| CCCC(C)c1cn(-c2ccc3n2[B-](F)(F)[N+]2=C(NCc4cc(F)cc(F)c4)C=CC2=C3c2ccc(NC(C)=O)cc2)nn1 (stereo not drawn) [MKAC412-3] | 466 nm | 561 nm | 27.73% | – | – | – |
| CC(=O)Nc1ccc(C2=C3C=CC(NCc4cc(F)cc(F)c4)=[N+]3[B-](F)(F)n3c2ccc3-n2cc(C3CC3)nn2)cc1 [MKAC412-4] | 466 nm | 562 nm | 26.84% | – | – | – |
| CC(=O)Nc1ccc(C2=C3C=CC(NCc4cc(F)cc(F)c4)=[N+]3[B-](F)(F)n3c2ccc3-n2cc(CC3CCCCC3)nn2)cc1 [MKAC412-8] | 467 nm | 562 nm | 16.81% | – | – | – |
| CC(=O)Nc1ccc(C2=C3C=CC(NCc4cc(F)cc(F)c4)=[N+]3[B-](F)(F)n3c2ccc3-n2cc(CN(C)Cc3ccccc3)nn2)cc1 [MKAC412-18] | 465 nm | 561 nm | 21.83% | – | – | – |
| CC(=O)Nc1ccc(C2=C3C=CC(NCc4cc(F)cc(F)c4)=[N+]3[B-](F)(F)n3c2ccc3-n2cc(CCc3ccccc3)nn2)cc1 [MKAC412-19] | 467 nm | 562 nm | 24.16% | – | – | – |
| CC(=O)Nc1ccc(C2=C3C=CC(NCc4cc(F)cc(F)c4)=[N+]3[B-](F)(F)n3c2ccc3-n2cc(CC(C)C)nn2)cc1 [MKAC412-43] | 467 nm | 560 nm | 18.26% | – | – | – |
| CCCc1cn(-c2ccc3n2[B-](F)(F)[N+]2=C(NCc4cc(F)cc(F)c4)C=CC2=C3c2ccc(NC(C)=O)cc2)nn1 [MKAC412-48] | 467 nm | 561 nm | 22.19% | – | – | – |
| CCCCCC(O)c1cn(-c2ccc3n2[B-](F)(F)[N+]2=C(NCc4cc(F)cc(F)c4)C=CC2=C3c2ccc(NC(C)=O)cc2)nn1 (stereo not drawn) [MKAC412-69] | 468 nm | 563 nm | 17.68% | – | – | – |
| CC(=O)Nc1ccc(C2=C3C=CC(NCc4cc(F)cc(F)c4)=[N+]3[B-](F)(F)n3c2ccc3-n2cc(CO)nn2)cc1 [MKAC412-70] | 461 nm | 561 nm | 3.96% | – | – | – |
| CCCC(C)c1cn(-c2ccc3n2[B-](F)(F)[N+]2=C(N4CC(C)OC(C)C4)C=CC2=C3c2ccc(NC(=O)CCl)cc2)nn1 (stereo not drawn) [MKCA20-3] | – | – | – | 467 nm | 581 nm | 3.15% |
| CC1CN(C2=[N+]3C(=C(c4ccc(NC(=O)CCl)cc4)c4ccc(-n5cc(C6CC6)nn5)n4[B-]3(F)F)C=C2)CC(C)O1 (stereo not drawn) [MKCA20-4] | – | – | – | 466 nm | 581 nm | 6.11% |

| Structure (SMILES) | λmax Abs. (nm) [1] | λmax Em. (nm) [1] | φ (%) ([2]; MKAC compound library) | λmax Absorp. (nm) [1] | λmax Emission (nm) [1] | φ (%) ([2]; MKCA compound library) |
| --- | --- | --- | --- | --- | --- | --- |
| CC1CN(C2=[N+]3C(=C(c4ccc(NC(=O)CCl)cc4)c4ccc(-n5cc(C6CCCC6)nn5)n4[B-]3(F)F)C=C2)CC(C)O1 (stereo not drawn) [MKCA20-5] | – | – | – | 468 nm | 581 nm | 4.60% |
| CC1CN(C2=[N+]3C(=C(c4ccc(NC(=O)CCl)cc4)c4ccc(-n5cc(CC6CCCCC6)nn5)n4[B-]3(F)F)C=C2)CC(C)O1 (stereo not drawn) [MKCA20-8] | – | – | – | 466 nm | 573 nm | 6.71% |
| CC1CN(C2=[N+]3C(=C(c4ccc(NC(=O)CCl)cc4)c4ccc(-n5cc(CN(C)Cc6ccccc6)nn5)n4[B-]3(F)F)C=C2)CC(C)O1 (stereo not drawn) [MKCA20-18] | – | – | – | 466 nm | 585 nm | 2.54% |
| CC1CN(C2=[N+]3C(=C(c4ccc(NC(=O)CCl)cc4)c4ccc(-n5cc(CCc6ccccc6)nn5)n4[B-]3(F)F)C=C2)CC(C)O1 (stereo not drawn) [MKCA20-19] | – | – | – | 467 nm | 583 nm | 5.32% |
| CC(C)Cc1cn(-c2ccc3n2[B-](F)(F)[N+]2=C(N4CC(C)OC(C)C4)C=CC2=C3c2ccc(NC(=O)CCl)cc2)nn1 (stereo not drawn) [MKCA20-43] | – | – | – | 468 nm | 585 nm | 2.19% |
| CCCc1cn(-c2ccc3n2[B-](F)(F)[N+]2=C(N4CC(C)OC(C)C4)C=CC2=C3c2ccc(NC(=O)CCl)cc2)nn1 (stereo not drawn) [MKCA20-48] | – | – | – | 466 nm | 569 nm | 4.88% |
| CCCCCC(O)c1cn(-c2ccc3n2[B-](F)(F)[N+]2=C(N4CC(C)OC(C)C4)C=CC2=C3c2ccc(NC(=O)CCl)cc2)nn1 (stereo not drawn) [MKCA20-69] | – | – | – | 469 nm | 586 nm | 3.23% |
| CC1CN(C2=[N+]3C(=C(c4ccc(NC(=O)CCl)cc4)c4ccc(-n5cc(CO)nn5)n4[B-]3(F)F)C=C2)CC(C)O1 (stereo not drawn) [MKCA20-70] | – | – | – | 469 nm | 587 nm | 2.64% |
| CCCC(C)c1cn(-c2ccc3n2[B-](F)(F)[N+]2=C(N4CCc5ccccc5C4)C=CC2=C3c2ccc(NC(=O)CCl)cc2)nn1 (stereo not drawn) [MKCA66-3] | – | – | – | 469 nm | 582 nm | 3.50% |
| O=C(CCl)Nc1ccc(C2=C3C=CC(N4CCc5ccccc5C4)=[N+]3[B-](F)(F)n3c2ccc3-n2cc(C3CC3)nn2)cc1 [MKCA66-4] | – | – | – | 469 nm | 587 nm | 3.33% |
| O=C(CCl)Nc1ccc(C2=C3C=CC(N4CCc5ccccc5C4)=[N+]3[B-](F)(F)n3c2ccc3-n2cc(C3CCCC3)nn2)cc1 [MKCA66-5] | – | – | – | 470 nm | 587 nm | 3.11% |
| O=C(CCl)Nc1ccc(C2=C3C=CC(N4CCc5ccccc5C4)=[N+]3[B-](F)(F)n3c2ccc3-n2cc(CC3CCCCC3)nn2)cc1 [MKCA66-8] | – | – | – | 469 nm | 582 nm | 3.05% |
| CN(Cc1ccccc1)Cc1cn(-c2ccc3n2[B-](F)(F)[N+]2=C(N4CCc5ccccc5C4)C=CC2=C3c2ccc(NC(=O)CCl)cc2)nn1 [MKCA66-18] | – | – | – | 466 nm | 585 nm | 2.33% |
| CCCc1cn(-c2ccc3n2[B-](F)(F)[N+]2=C(N4CCc5ccccc5C4)C=CC2=C3c2ccc(NC(=O)CCl)cc2)nn1 [MKCA66-48] | – | – | – | 469 nm | 584 nm | 3.18% |
| CCCCCC(O)c1cn(-c2ccc3n2[B-](F)(F)[N+]2=C(N4CCc5ccccc5C4)C=CC2=C3c2ccc(NC(=O)CCl)cc2)nn1 (stereo not drawn) [MKCA66-69] | – | – | – | 469 nm | 586 nm | 3.38% |
| O=C(CCl)Nc1ccc(C2=C3C=CC(N4CCc5ccccc5C4)=[N+]3[B-](F)(F)n3c2ccc3-n2cc(CO)nn2)cc1 [MKCA66-70] | – | – | – | 468 nm | 581 nm | 2.61% |
| Cc1ccccc1CNC1=[N+]2C(=C(c3ccc(NC(=O)CCl)cc3)c3ccc(-n4cc(C5CC5)nn4)n3[B-]2(F)F)C=C1 [MKCA101-4] | – | – | – | 464 nm | 565 nm | 34.56% |
